This assay concerns the target Vascular endothelial growth factor receptor 2 (Homo sapiens, UniProt P35968). Nature of the assay: Inhibition of VEGFR-2 (unknown origin) at 10 uM after 1 hr by Z'LYTE assay.

The term inhibition denotes how much of the control response was suppressed.

Vascular endothelial growth factor receptor 2, sequence (P35968 whole entry): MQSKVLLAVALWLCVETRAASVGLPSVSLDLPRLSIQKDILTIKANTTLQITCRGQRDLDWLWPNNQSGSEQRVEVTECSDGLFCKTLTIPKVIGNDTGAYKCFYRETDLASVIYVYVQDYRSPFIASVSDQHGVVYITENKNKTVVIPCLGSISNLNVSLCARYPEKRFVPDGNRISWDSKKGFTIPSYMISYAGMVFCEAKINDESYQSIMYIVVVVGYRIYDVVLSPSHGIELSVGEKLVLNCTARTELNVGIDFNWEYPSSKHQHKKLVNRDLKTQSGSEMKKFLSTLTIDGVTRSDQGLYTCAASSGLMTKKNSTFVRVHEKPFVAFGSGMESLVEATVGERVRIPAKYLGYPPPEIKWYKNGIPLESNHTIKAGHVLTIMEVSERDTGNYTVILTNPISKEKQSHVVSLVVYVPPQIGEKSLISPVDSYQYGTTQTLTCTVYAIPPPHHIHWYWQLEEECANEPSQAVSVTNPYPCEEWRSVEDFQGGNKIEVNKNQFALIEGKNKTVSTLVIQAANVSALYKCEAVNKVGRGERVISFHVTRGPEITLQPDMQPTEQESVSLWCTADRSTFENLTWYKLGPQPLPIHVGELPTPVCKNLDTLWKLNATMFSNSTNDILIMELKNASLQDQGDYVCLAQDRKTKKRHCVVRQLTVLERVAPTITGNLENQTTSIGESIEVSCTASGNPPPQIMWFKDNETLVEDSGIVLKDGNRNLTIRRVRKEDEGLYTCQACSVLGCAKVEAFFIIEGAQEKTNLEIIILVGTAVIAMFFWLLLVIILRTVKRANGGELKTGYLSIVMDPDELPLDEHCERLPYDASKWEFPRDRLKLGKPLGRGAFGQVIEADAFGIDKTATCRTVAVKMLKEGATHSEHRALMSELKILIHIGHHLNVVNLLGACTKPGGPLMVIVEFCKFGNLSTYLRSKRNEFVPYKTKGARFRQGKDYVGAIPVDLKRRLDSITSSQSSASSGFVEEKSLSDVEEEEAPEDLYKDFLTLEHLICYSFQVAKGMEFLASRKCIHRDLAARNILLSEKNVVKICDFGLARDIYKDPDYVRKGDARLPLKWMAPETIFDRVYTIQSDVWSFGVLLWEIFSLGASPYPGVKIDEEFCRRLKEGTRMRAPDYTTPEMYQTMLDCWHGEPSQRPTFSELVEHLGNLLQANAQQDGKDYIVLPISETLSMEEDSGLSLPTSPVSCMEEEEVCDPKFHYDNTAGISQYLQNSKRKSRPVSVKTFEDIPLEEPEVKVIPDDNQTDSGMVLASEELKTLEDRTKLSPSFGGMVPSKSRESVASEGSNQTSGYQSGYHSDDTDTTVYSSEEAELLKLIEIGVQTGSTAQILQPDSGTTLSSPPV

Compound `Cc1c2ccc(Nc3ccnc(Nc4ccc(F)cc4)n3)cc2nn1C` returned an inhibition of 63.8%.
The same measure for `Cc1c2ccc(Nc3ccnc(Nc4ccc(S(N)(=O)=O)cc4)n3)cc2nn1C`: 60.8%.
